Measured values taken from PMC7382816 (BMC Pharmacology & Toxicology, 2020).
Like-named read-outs stand apart in the source and are kept apart here.

Experiment: Single-dose pharmacokinetics in healthy volunteers under fasting and fed (high-fat breakfast) conditions, plasma concentrations by HPLC-MS, non-compartmental analysis
Type: in vivo, human
Set-up: Ke: unit not given here
Text: The bioequivalence clinical trials were phase I, randomized, open-label, crossover, single-centre, with two periods separated by a 7-day washout stage. Subjects were randomised to one of the two treatment sequences, RT or TR where R was the reference formulation and T was the test formulation. Each of the clinical trial was crossover for evaluation of a test formulation compared to a reference formulation either under fed or fasting conditions. […] The treatments were allocated in a balanced manner on every inclusion day (blocks of 4 subjects). Our study adheres to CONSORT guidelines. […] Sample processing, genotyping for CYP2C19 and drug quantification were performed according to Román et al. […] Pharmacokinetic parameters were estimated from the plasma concentration–time data by non-compartmental analysis (WinNonlin Professional, version 2.0., Pharsight Corporation, USA) as reported by Román et al. […] WinNonLin Professional software version 2.0 was used for the statistical analysis. Pharmacokinetic parameters were log-transformed, and AUC and Cmax were adjusted for dose and weight. The values of pharmacokinetic parameters were expressed as mean ± standard deviation.

[1] = Fast, men, single oral dose, mean ± SD
[2] = both sexes, human, plasma, oral, only CYP2C19*1/*1 subjects, Fast, men and women, mean ± SD
[3] = both sexes, human, plasma, oral, only CYP2C19*1/*1 subjects, Fed, men and women, mean ± SD
[4] = both sexes, human, plasma, po, Fast, all subjects, single oral dose, mean ± SD
[5] = both sexes, human, plasma, po, Fed (high-fat breakfast), all subjects, single oral dose, mean ± SD
[6] = female, human, plasma, oral, only CYP2C19*1/*1 subjects, Fast, women, mean ± SD
[7] = female, human, plasma, oral, only CYP2C19*1/*1 subjects, Fed, women, mean ± SD
[8] = female, human, plasma, po, Fast, women, single oral dose, mean ± SD
[9] = female, human, plasma, po, Fed, women, single oral dose, mean ± SD
[10] = male, human, plasma, oral, only CYP2C19*1/*1 subjects, Fast, men, mean ± SD
[11] = male, human, plasma, oral, only CYP2C19*1/*1 subjects, Fed, men, mean ± SD
[12] = male, human, plasma, po, Fast, men, single oral dose, mean ± SD
[13] = male, human, plasma, po, Fed, men, single oral dose, mean ± SD
[14] = only CYP2C19*1/*1 subjects, Fast, men, mean ± SD
[15] = only CYP2C19*1/*1 subjects, Fast, women, mean ± SD
[16] = only CYP2C19*1/*1 subjects, Fed, men and women, mean ± SD
[17] = only CYP2C19*1/*1 subjects, Fed, men, mean ± SD

Ke (Fast, all subjects, single oral dose, mean ± SD): 0.76 ± 0.29
Cmax [1]: 858.8 ± 432.6 ng/mL
Ke [1]: 0.70 ± 0.29
Ke (Fast, women, single oral dose, mean ± SD): 0.82 ± 0.29
Ke (Fed (high-fat breakfast), all subjects, single oral dose, mean ± SD): 0.67 ± 0.32
Ke (Fed, men, single oral dose, mean ± SD): 0.69 ± 0.35
Ke (Fed, women, single oral dose, mean ± SD): 0.65 ± 0.30
AUC(0-inf) [2]: 1710 ± 1300 ng·h/mL
CL/F [2]: 9.5 mL/min/kg
Vd/F [2]: 0.69 ± 0.38 L/kg
half-life [2]: 1 ± 0.4 h
Cmax (both sexes, human, plasma, oral, only CYP2C19*1/*1 subjects, Fast, men and women, mean ± SD, read-out: Cmax): 860 ± 395 ng/mL
Tmax (both sexes, human, plasma, oral, only CYP2C19*1/*1 subjects, Fast, men and women, mean ± SD, read-out: Tmax): 1.8 ± 0.6 h
AUC(0-inf) [3]: 1520 ± 1290 ng·h/mL
CL/F [3]: 10.3 mL/min/kg
Vd/F [3]: 0.77 ± 0.43 L/kg
half-life [3]: 1 ± 0.4 h
Cmax (both sexes, human, plasma, oral, only CYP2C19*1/*1 subjects, Fed, men and women, mean ± SD, read-out: Cmax): 604 ± 363 ng/mL
Tmax (both sexes, human, plasma, oral, only CYP2C19*1/*1 subjects, Fed, men and women, mean ± SD, read-out: Tmax): 4.9 h
Tmax (both sexes, human, plasma, oral, under fasting conditions, range among subjects, read-out: Tmax range): 1 to 3.5 h
Tmax (both sexes, human, plasma, oral, under fed conditions, range among subjects, read-out: Tmax range): 1 to 17 h
AUC(0-inf) [4]: 2190 ± 2010 ng·h/mL
CL/F [4]: 8.83 mL/min/kg
Vd/F [4]: 0.64 ± 0.34 L/kg
Cmax (both sexes, human, plasma, po, Fast, all subjects, single oral dose, mean ± SD, read-out: Cmax): 931 ± 435 ng/mL
Tmax (both sexes, human, plasma, po, Fast, all subjects, single oral dose, mean ± SD, read-out: Tmax): 2 ± 0.7 h
AUC(0-inf) [5]: 1930 ± 1880 ng·h/mL
CL/F [5]: 10.7 mL/min/kg
Vd/F [5]: 1.02 ± 1.07 L/kg
Cmax (both sexes, human, plasma, po, Fed (high-fat breakfast), all subjects, single oral dose, mean ± SD, read-out: Cmax): 683 ± 394 ng/mL
Tmax (both sexes, human, plasma, po, Fed (high-fat breakfast), all subjects, single oral dose, mean ± SD, read-out: Tmax): 4.9 ± 1.1 h
AUC lower under fed conditions (fed vs fasting, all subjects): 12%
Cmax lower under fed conditions (fed vs fasting, all subjects): 27%
Delay of mean Tmax (absorption) by food (fed vs fasting, all subjects): about 3 h
half-life higher under fed conditions (fed vs fasting, all subjects): 15%
Delay of Tmax by food (fed vs fasting, only subjects with CYP2C19*1/*1): 3 h
AUC(0-inf) [6]: 1980 ± 1220 ng·h/mL
CL/F [6]: 8.83 mL/min/kg
Vd/F [6]: 0.69 ± 0.46 L/kg
half-life [6]: 1 ± 0.3 h
AUC(0-inf) [7]: 1710 ± 1250 ng·h/mL
CL/F [7]: 9.5 mL/min/kg
Vd/F [7]: 0.84 ± 0.54 L/kg
Cmax (female, human, plasma, oral, only CYP2C19*1/*1 subjects, Fed, women, mean ± SD, read-out: Cmax): 640 ± 275 ng/mL
Tmax (female, human, plasma, oral, only CYP2C19*1/*1 subjects, Fed, women, mean ± SD, read-out: Tmax): 5.4 ± 0.4 h
AUC(0-inf) [8]: 2020 ± 1500 ng·h/mL
CL/F [8]: 9.33 mL/min/kg
Vd/F [8]: 0.63 ± 0.31 L/kg
half-life [8]: 1 ± 0.4 h
Cmax (female, human, plasma, po, Fast, women, single oral dose, mean ± SD, read-out: Cmax): 999 ± 438 ng/mL
Tmax (female, human, plasma, po, Fast, women, single oral dose, mean ± SD, read-out: Tmax): 1.9 ± 0.6 h
AUC(0-inf) [9]: 1720 ± 1400 ng·h/mL
CL/F [9]: 12.2 mL/min/kg
Vd/F [9]: 1.3 ± 1.38 L/kg
Cmax (female, human, plasma, po, Fed, women, single oral dose, mean ± SD, read-out: Cmax): 640 ± 640 ng/mL
Tmax (female, human, plasma, po, Fed, women, single oral dose, mean ± SD, read-out: Tmax): 5.4 ± 1 h
AUC(0-inf) [10]: 1470 ± 1400 ng·h/mL
CL/F [10]: 10.3 mL/min/kg
Vd/F [10]: 0.68 ± 0.46 L/kg
Cmax (male, human, plasma, oral, only CYP2C19*1/*1 subjects, Fast, men, mean ± SD, read-out: Cmax): 654 ± 306 ng/mL
AUC(0-inf) [11]: 1410 ± 1160 ng·h/mL
CL/F [11]: 10.5 mL/min/kg
Vd/F [11]: 0.73 ± 0.38 L/kg
half-life [11]: 1 ± 0.4 h
Tmax (male, human, plasma, oral, only CYP2C19*1/*1 subjects, Fed, men, mean ± SD, read-out: Tmax): 4.3 ± 1 h
AUC(0-inf) [12]: 2380 ± 2480 ng·h/mL
CL/F [12]: 8.33 mL/min/kg
Vd/F [12]: 0.65 ± 0.38 L/kg
Tmax (male, human, plasma, po, Fast, men, single oral dose, mean ± SD, read-out: Tmax): 2.1 ± 0.7 h
AUC(0-inf) [13]: 2140 ± 2280 ng·h/mL
CL/F [13]: 9.5 mL/min/kg
Vd/F [13]: 0.75 ± 0.52 L/kg
Cmax (male, human, plasma, po, Fed, men, single oral dose, mean ± SD, read-out: Cmax): 725 ± 448 ng/mL
Tmax (male, human, plasma, po, Fed, men, single oral dose, mean ± SD, read-out: Tmax): 4.5 ± 0.9 h
Ke (only CYP2C19*1/*1 subjects, Fast, men and women, mean ± SD): 0.81 ± 0.23
Ke [14]: 0.82 ± 0.25
Tmax [14]: 2.0 ± 0.7 h
Cmax [15]: 1094.3 ± 366.6 ng/mL
Ke [15]: 0.79 ± 0.23
Ke [16]: 0.80 ± 0.36
Tmax [16]: 4.7 ± 1.0 h
Cmax [17]: 582.8 ± 419.1 ng/mL
Ke [17]: 0.84 ± 0.39
Ke (only CYP2C19*1/*1 subjects, Fed, women, mean ± SD): 0.72 ± 0.32
SMILES: COc1ccc2[nH]c([S+]([O-])Cc3ncc(C)c(OC)c3C)nc2c1 (stereo not drawn) [Omeprazole, omeprazole]
